Experimental data as given in ChEMBL document CHEMBL1201862, “PubChem BioAssay data set” (2004).
The source made the active and inactive calls.

Experiments:
[1] = molecular target: Hepatocyte nuclear factor 4-alpha (Homo sapiens, UniProt P41235); format: functional, cell-based;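 further: biochemical luminescence-based dose-response counterscreen measuring inhibition of HNF4 dimerization, run alongside a screen for blockers of ABHD5–perilipin-5 interaction; split luciferase complementation of HNF4 fusion proteins in cell lysate measuring dimerization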
Hepatocyte nuclear factor 4-alpha, sequence (P41235 whole entry, the tested form may be a part): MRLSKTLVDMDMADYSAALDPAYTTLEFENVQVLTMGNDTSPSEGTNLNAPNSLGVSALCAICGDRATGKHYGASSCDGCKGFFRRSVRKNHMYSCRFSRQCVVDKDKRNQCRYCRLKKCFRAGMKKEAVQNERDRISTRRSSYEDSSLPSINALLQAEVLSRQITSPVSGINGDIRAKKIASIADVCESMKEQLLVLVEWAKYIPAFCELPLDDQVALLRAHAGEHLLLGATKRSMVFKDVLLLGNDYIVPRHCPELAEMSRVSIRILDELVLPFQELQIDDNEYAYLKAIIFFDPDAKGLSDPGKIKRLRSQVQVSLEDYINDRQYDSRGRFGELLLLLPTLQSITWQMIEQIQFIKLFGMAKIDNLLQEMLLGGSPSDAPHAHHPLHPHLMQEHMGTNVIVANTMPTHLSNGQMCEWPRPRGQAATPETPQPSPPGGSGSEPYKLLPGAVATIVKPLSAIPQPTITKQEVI

[2] = molecular target: T1, Low molecular weight phosphotyrosine protein phosphatase (Homo sapiens, UniProt P24666); format: functional; conditions: read-out: IC50_Mean
T1 sequence (P24666 whole entry): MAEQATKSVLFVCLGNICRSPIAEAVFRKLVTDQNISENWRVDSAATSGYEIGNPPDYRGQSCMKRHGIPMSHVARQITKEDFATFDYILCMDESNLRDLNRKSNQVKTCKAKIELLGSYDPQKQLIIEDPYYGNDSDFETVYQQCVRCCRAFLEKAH

[3] = molecular target: Tyrosine-protein phosphatase non-receptor type 5 (Homo sapiens, UniProt P54829); assay: STEP phosphatase inhibitors, confirmation, biochemical, fluorescence intensity, uHTS hits (AID 602372); format: functional; conditions: read-out: IC50_Mean
Tyrosine-protein phosphatase non-receptor type 5, sequence (P54829 whole entry): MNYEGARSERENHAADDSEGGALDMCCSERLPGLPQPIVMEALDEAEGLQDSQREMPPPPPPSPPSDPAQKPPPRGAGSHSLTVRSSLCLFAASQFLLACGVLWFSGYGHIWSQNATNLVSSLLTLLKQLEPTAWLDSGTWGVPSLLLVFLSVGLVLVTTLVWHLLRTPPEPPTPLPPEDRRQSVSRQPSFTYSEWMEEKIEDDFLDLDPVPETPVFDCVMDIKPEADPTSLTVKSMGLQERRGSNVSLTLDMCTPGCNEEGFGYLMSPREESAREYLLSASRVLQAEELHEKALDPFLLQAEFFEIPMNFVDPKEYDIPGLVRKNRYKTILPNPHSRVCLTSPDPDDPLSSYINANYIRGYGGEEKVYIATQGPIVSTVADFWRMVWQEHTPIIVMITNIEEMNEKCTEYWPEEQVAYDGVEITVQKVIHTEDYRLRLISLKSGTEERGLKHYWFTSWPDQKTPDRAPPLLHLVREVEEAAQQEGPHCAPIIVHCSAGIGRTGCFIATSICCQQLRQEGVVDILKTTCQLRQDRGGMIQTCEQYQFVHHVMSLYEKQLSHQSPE

[4] = molecular target: T1, Low molecular weight phosphotyrosine protein phosphatase; format: functional; conditions: read-out: IC50_Mean; remark: listed apart in the source
[5] = molecular target: Dual specificity protein phosphatase 3 (Homo sapiens, UniProt P51452); assay: VHR phosphatase inhibition, dose response, selectivity assay for STEP inhibitor project, biochemical (AID 602374); format: functional; conditions: read-out: IC50_Mean
Dual specificity protein phosphatase 3, sequence (P51452 whole entry): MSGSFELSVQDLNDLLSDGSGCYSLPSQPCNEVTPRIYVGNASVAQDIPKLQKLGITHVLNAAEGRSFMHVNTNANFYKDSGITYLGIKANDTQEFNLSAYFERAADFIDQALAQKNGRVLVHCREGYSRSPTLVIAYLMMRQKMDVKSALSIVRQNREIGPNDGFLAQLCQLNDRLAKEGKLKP

[6] = molecular target: Tyrosine-protein phosphatase non-receptor type 11 (Homo sapiens, UniProt Q06124); assay: SHP2 phosphatase inhibition, dose response, selectivity assay for STEP inhibitor project, biochemical (AID 602367); format: functional; conditions: read-out: IC50_Mean
Tyrosine-protein phosphatase non-receptor type 11, sequence (Q06124 whole entry, the tested form may be a part): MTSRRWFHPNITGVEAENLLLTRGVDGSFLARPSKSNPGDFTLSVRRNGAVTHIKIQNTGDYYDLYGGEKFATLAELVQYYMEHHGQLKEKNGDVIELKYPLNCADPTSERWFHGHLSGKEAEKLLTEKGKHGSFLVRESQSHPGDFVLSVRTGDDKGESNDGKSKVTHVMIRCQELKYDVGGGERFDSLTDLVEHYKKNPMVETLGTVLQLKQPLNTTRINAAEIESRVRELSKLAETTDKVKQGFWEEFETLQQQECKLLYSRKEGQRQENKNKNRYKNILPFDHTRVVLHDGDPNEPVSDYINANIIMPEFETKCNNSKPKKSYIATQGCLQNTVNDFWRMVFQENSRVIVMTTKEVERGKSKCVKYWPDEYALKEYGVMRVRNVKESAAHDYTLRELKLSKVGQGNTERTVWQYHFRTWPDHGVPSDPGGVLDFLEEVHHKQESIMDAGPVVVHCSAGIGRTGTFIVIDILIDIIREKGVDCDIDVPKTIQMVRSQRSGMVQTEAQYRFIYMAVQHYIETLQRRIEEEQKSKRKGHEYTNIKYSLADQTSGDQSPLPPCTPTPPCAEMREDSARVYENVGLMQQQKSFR

[7] = molecular target: T2, Tyrosine-protein phosphatase non-receptor type 22 (Homo sapiens, UniProt Q9Y2R2); assay: LYP phosphatase inhibition for selectivity, dose response, selectivity assay for LMPTP inhibitor project, biochemical, fluorescence, LYP catalytic domain (AID 652006); format: functional; conditions: read-out: IC50_Mean
T2 sequence (Q9Y2R2 whole entry): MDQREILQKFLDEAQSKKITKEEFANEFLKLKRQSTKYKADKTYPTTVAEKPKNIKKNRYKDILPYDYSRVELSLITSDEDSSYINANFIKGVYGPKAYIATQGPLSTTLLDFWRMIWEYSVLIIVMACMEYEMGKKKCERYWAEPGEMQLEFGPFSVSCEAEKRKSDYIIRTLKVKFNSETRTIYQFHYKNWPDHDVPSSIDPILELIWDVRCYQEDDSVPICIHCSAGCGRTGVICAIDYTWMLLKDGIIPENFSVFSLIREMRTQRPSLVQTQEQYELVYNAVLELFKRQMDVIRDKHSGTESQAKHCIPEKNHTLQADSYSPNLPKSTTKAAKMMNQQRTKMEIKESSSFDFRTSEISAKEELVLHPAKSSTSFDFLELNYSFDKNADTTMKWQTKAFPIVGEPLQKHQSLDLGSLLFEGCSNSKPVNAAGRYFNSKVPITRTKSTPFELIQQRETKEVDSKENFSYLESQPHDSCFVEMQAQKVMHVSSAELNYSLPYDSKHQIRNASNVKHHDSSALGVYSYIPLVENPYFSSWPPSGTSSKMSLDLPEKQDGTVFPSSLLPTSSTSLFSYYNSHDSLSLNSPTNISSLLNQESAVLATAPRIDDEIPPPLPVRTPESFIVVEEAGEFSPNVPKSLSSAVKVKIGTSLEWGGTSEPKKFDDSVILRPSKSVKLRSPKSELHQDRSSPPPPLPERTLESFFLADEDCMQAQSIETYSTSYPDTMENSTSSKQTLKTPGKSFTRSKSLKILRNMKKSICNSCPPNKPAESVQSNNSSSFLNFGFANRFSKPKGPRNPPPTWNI

[8] = molecular target: T3, Carboxy-terminal domain RNA polymerase II polypeptide A small phosphatase 1 (Homo sapiens, UniProt Q9GZU7); assay: inhibitors of CTDSP1, concentration-response testing, biochemical assay, absorbance-based, actives from ultra-high-throughput screening (AID 540297); format: functional
T3 sequence (Q9GZU7 whole entry): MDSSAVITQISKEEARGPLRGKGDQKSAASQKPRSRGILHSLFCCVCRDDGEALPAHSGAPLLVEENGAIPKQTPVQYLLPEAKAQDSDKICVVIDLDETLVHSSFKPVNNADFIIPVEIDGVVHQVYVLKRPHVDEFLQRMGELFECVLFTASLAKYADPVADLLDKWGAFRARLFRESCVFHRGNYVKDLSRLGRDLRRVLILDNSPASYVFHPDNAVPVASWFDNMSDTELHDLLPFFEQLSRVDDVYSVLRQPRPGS

[9] = molecular target: T4, ATP-dependent translocase ABCB1 (Homo sapiens, UniProt P08183); assay: ABCG2 efflux pump inhibitor potency, dose response, Ig-MXP3 cells, JC-1, flow cytometry, set 2 (AID 504566); format: functional; conditions: read-out: EC50_MICROM_;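 further: flow cytometry median green fluorescence of retained JC-1 dye; potency of efflux pump inhibition measured as rising substrate retention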
T4 sequence (P08183 whole entry): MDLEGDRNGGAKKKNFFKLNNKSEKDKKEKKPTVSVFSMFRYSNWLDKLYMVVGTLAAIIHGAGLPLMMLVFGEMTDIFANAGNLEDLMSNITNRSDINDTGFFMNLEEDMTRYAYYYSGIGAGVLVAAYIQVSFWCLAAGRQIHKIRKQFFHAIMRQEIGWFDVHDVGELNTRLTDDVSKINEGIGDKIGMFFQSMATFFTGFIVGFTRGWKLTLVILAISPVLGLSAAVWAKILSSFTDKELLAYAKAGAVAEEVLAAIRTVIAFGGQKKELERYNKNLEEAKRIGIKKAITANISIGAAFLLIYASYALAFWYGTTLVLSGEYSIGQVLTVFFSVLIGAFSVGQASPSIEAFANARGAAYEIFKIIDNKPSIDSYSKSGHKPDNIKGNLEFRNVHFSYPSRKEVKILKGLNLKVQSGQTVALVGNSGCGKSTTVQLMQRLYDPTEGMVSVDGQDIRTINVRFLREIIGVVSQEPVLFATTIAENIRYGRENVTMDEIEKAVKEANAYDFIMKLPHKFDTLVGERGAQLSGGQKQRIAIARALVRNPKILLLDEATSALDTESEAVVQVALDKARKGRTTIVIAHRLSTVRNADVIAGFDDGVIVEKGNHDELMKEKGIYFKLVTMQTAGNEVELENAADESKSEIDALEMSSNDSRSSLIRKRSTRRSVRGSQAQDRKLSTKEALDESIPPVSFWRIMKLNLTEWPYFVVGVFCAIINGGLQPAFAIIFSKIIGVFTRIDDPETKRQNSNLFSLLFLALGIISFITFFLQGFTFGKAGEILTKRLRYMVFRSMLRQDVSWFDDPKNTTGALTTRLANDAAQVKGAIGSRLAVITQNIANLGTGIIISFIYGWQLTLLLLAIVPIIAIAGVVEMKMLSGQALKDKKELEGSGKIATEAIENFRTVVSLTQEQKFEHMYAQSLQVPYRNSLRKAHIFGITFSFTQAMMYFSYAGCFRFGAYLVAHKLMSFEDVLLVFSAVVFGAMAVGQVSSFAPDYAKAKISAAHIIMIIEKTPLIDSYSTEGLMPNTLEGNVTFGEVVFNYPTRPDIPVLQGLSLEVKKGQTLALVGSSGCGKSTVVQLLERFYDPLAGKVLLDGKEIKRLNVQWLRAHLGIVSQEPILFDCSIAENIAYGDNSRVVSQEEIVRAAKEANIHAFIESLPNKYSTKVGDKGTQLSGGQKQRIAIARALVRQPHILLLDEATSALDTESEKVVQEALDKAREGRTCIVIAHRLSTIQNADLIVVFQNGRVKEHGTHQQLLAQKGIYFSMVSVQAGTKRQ

[10] = molecular target: T4, ATP-dependent translocase ABCB1; assay: ABCB1 efflux inhibitor potency, dose response, Jurkat-DNR cells, JC-1, flow cytometry, set 2 (AID 504569); format: functional; conditions: read-out: EC50_MICROM_;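 further: potency of pump inhibitors that raise cellular JC-1 green fluorescence up to the nicardipine level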
[11] = AlphaScreen signal interference compounds, dose response, artefact control for ARNT-TACC3 interaction inhibitor project, biochemical, luminescence, cherry-pick (AID 651705); format: functional;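 further: AlphaScreen bead proximity signal that flags compounds interfering with the detection technology; potency reflects signal decrease which marks the compound as an assay artifact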
[12] = molecular target: T5, Sentrin-specific protease 8 (Homo sapiens, UniProt Q96LD8); format: functional
T5 sequence (Q96LD8 whole entry): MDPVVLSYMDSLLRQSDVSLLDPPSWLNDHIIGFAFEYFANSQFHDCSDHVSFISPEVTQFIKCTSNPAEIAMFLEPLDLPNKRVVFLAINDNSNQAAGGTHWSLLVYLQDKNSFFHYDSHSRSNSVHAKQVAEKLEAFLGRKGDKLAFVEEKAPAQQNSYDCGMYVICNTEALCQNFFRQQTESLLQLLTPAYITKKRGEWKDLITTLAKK

[13] = molecular target: T5, Sentrin-specific protease 8; format: functional; remark: listed apart in the source
[14] = ARNT/TACC3 interaction disruptors, potency, confirmation, biochemical, AlphaScreen, cherry-picked samples (AID 651703); format: functional, Homo sapiens;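 further: His-tagged ARNT PAS-B domain paired with GST-TACC3 E629A dimer coactivator fragment; potency of inhibitors that break up the complex and lower AlphaScreen signal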

In the case of `CC(C)(C)NC(=O)C(c1ccc(C(F)(F)F)cc1)n1c(=O)c(-c2ccco2)nc2ccccc21` (centres undefined), the IC50 [1] is reported as 1.81 µM (active).

With `O=C(N/N=C/c1ccc(OC(=O)c2cccs2)cc1)c1cccc(F)c1` the IC50 [2] was 17.2 µM (active), the IC50 [3] was 9.39 µM (active) and the IC50 [4] was 11.2 µM (active). The IC50 [5] was 2.45 µM (active), the IC50 [6] was 1.37 µM (active) and the IC50 [7] was 24.9 µM (inactive). For the same compound, the IC50 [8] was 3.55 µM (active).

For `O=C(c1ccccc1)N1CCN(c2cc(Cl)nc3cc(-c4cccc(Cl)c4)nn23)CC1`, the EC50 [9] was 1.8 µM (active) and the EC50 [10] was 3.98 µM (active).

With `CN1CC[C@@]2(C)c3cc(O)ccc3N(C)[C@@H]12` the AC50 [11] was 97.2 µM (active), the IC50 [12] was 3.53 µM (active) and the IC50 [13] was 8.51 µM (active).

For `C/C=C/c1ccc([C@H]2[C@@H](CO)N(Cc3ccccn3)[C@@H]2CNC(C)=O)cc1`, the AC50 [14] was 93.3 µM (active).
